Here are results for one molecule from patent US8222487B2, “Application of ERF genes from Bupleurum kaoi” (National Tsing Hua University, priority 2009, dated 2012).

A value given as a limit tells only on which side of the number the result lay.

Type in all cases: cell-based, Bupleurum kaoi
Assay [1] relates to B. kaoi adventitious roots. Briefly: Measurement of malondialdehyde (MDA) in adventitious roots. The procedure: (§1) To test whether MeJA caused oxidative stress, the H2O2 level was measured as described below. H2O2 was extracted by homogenizing 0.3 to 0.5 g of adventitious roots with 3 ml phosphate buffer (50 mM, pH6.8) and centrifuged at 6000×g for 25 min. A 2 ml extract was mixed with 1 ml 0.1% titanium sulfate in 20% H2SO4 (v/v), and centrifuged at 6000×g for 15 min. The optical density of the supernatant was measured at 410 nm using an equal volume of phosphate buffer as a blank. […] The MDA level was colorimetrically measured as described below. MDA was extracted by homogenizing 0.3 to 0.5 g adventitious roots with 2 ml 5% trichloroacetic acid, and centrifuged at 10,000×g for 5 min at 20° C. A mixture of 1 ml supernatant with 4 ml 0.5% thiobarbituric acid in 20% trichloroacetic acid was heated in a 95° C. water bath for 30 min and centrifuged for 10 min at 2000×g to remove haziness. Optical density of the supernatant was measured at 532 nm and 600 nm using 1 ml 5% trichloroacetic acid to replace supernatant as a blank.

For assay [2], the system named is B. kaoi adventitious roots. The experiment in a line: cDNA microarray of MeJA-responsive genes in adventitious roots. The following applies: 500 μM MeJA; microarray analysis. The protocol:
Adventitious root cultures were induced from the roots of germ-free seedlings of B. kaoi and were subcultured every 6 weeks by adding 0.2 g roots to a 125 ml flask containing 50 ml of B5 liquid medium supplemented with 2 mg 1^−1 NAA. Cultures were shaken using a rotary shaker at 100 rpm at 25° C. in the dark. To quantify the effect of MeJA on saikosaponin level, adventitious roots were treated with 500 and 1000 μM MeJA 2 weeks after subculture. Total saikosaponin was measured 2 weeks after MeJA treatment. To monitor expression of MeJA-responsive genes, the nutrient medium was refreshed 4 weeks after subculture and MeJA (500 μM) was applied 2 weeks after refreshment. Roots were harvested at 13 time points (5 min; 1, 2, 8, 24 hours; 2, 4, 6, 8 days; 2, 3, 4, 5 weeks) after the addition of the MeJA. […]
The DNA microarray data were imported into GeneSpring 7.2 (Silicon Genetics) for further analyses. […] The coefficient of variation was calculated by dividing the standard deviation by the mean. Net intensities of both channels were calculated by subtraction of the median fluorescent intensity of the background from the mean fluorescent intensity of each feature. […] Fold change was calculated for each gene by dividing the average intensity of MeJA-treated samples by the average intensity of the corresponding control samples. […]

Assay [3] has as its system B. kaoi adventitious roots. Briefly: Measurement of H2O2 in adventitious roots. The following applies: 500 μM MeJA; during 5 weeks culture. The procedure:
as §1

In assay [4] the test system is B. kaoi adventitious roots. The experiment in a line: Fresh weight and appearance of adventitious roots after MeJA. The protocol: FIG. 1 Effect of MeJA on fresh weight and appearance of B. kaoi adventitious roots. (A) Four weeks after subculture, the nutrient medium of B. kaoi adventitious roots was refreshed. MeJA (500 μM) was applied 2 weeks after refreshment. The fresh weights of adventitious roots were measured at 13 time points after MeJA treatment as indicated. (B) Adventitious roots treated with MeJA began to show dark brownish pigmentation after 2 weeks. Each panel is a representative of the adventitious roots at the indicated time points. The left and right flasks for each sub-panel indicate the control and MeJA treated adventitious roots, respectively. (C) H2O2 level and (D) MDA level were measured at the indicated time. Vertical bars indicate S.E. of the mean for n=3.
Adventitious root cultures were induced from the roots of germ-free seedlings of B. kaoi and were subcultured every 6 weeks by adding 0.2 g roots to a 125 ml flask containing 50 ml of B5 liquid medium supplemented with 2 mg 1^−1 NAA. Cultures were shaken using a rotary shaker at 100 rpm at 25° C. in the dark. To quantify the effect of MeJA on saikosaponin level, adventitious roots were treated with 500 and 1000 μM MeJA 2 weeks after subculture. Total saikosaponin was measured 2 weeks after MeJA treatment. […]

On to `CC/C=C\CC1C(=O)CCC1CC(=O)OC` (stereo not drawn) [MeJA, Methyl jasmonate], for which the “Increase in the MDA level” value in assay [1] (500 μM MeJA, at 2 days) amounted to 1.4 fold. The “Accumulation of MDA” value in assay [1] (all treatments during 5 weeks) was below 47 nmol/g. In addition, in assay [2], the “Two BkP450 genes (AM421810, AM421812) increase” value amounted to 2 fold. For the same molecule, the “H2O2 levels in the adventitious roots” value in assay [3] is “did not significantly change”. Further, the “Appearance of roots (pigmentation)” value in assay [4] (500 μM MeJA, 2 weeks later, compared to control) is reported as “marked pigmentation”. Besides, the “Growth of adventitious roots (fresh weight)” value in assay [4] (8 days after 500 μM MeJA treatment) is listed as “retarded”.
